Values of other authors as cited in patent publication US8293789B2, “Method of preparing a latanoprost opthalmic solution and the resulting solution” (priority 2004, dated 2012).

Legend:
[1] = test system: patients with open angle glaucoma or ocular hypertension; settings: for circadian / nocturnal reduction of intraocular pressure: day versus night
[2] = not given; remark: listed apart in the source

Compound | circadian / nocturnal reduction of intraocular pressure [1] | time to peak concentration in the aqueous humor (after local administration) | plasmatic mid life (in humans, sentence follows statements on latanoprost acid) | time to maximum concentration in the aqueous humor (studies on humans, following administration) | solubility in organic solvents ([2]; acetone, ethanol, ethyl acetate, isopropanol, methanol and octanol) | solubility in acetonitrile ([2]; acetonitrile) | solubility in water ([2]; water) | effectiveness of one sole daily application versus double daily application of other glaucoma agents ([1]; latanoprost 0.005%, patients with open angle glaucoma or ocular hypertension) | patients with a reduction in the intraocular pressure of at least 30% ([1]; patients treated with latanoprost, after 6 months of treatment) | effectiveness as hypotensive agent compared with unoprostone ([1]; patients, versus unoprostone)
CCN[C@H]1C[C@H](C)S(=O)(=O)c2sc(S(N)(=O)=O)cc21 [Dorzolamide] | less effective than latanoprost | – | – | – | – | – | – | – | – | –
CC(C)OC(=O)CCC/C=C\C[C@@H]1[C@@H](CC[C@@H](O)CCc2ccccc2)[C@H](O)C[C@@H]1O [latanoprost, isopropilic ester of the prostaglandin F2α 17-phenyl-13,14dihydro] | more uniform circadian reduction | 2 h | 17 min | approximately two | freely soluble | highly soluble | practically insoluble | at least as effective | 52% | better results
CC(C)(C)NC[C@H](O)COc1nsnc1N1CCOCC1 [timolol] | less effective during the night | – | – | – | – | – | – | – | – | –
